Assay results published in PubChem BioAssay AID1259411 (Chemical Carcinogenesis Research Information System (CCRIS), 2018).
Calls of active or inactive are those of the source. No rule for the calls is given here.

System: rodent carcinogenicity bioassays, tumor incidence
Assay: CCRIS carcinogenicity studies
In short: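 Archive of carcinogenicity, mutagenicity, tumor promotion and tumor inhibition results drawn from journals, NCI reports and other sources, expert-reviewed; covers 1985-2011 and is no longer updated.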

`C=C(Cl)CSC(=S)N(CC)CC` was tested, and the carcinogen call (Species: MOUSE, Strain/Sex: B6C3F1/FEMALE, Route: ORAL, Dose: 0, 908, 1815 PPM TWA, IN DIET FOR 74 WK (STUDY DURATION: 90-91 WK), Dose: 0, 908, 1815 PPM TWA, IN DIET FOR 74 WK (STUDY DURATION: 90-91 WK), Tumor Site: Type of Lesion: MAMMARY GLAND: ADENOCARCINOMA OR SQUAMOUS METAPLASIA) was “active; positive”, the carcinogen call (Species: MOUSE, Strain/Sex: B6C3F1/MALE, Route: ORAL, Dose: 0, 949, 1897 PPM TWA, IN DIET FOR 74 WK (STUDY DURATION: 91 WK), Dose: 0, 949, 1897 PPM TWA, IN DIET FOR 74 WK (STUDY DURATION: 91 WK), Tumor Site: Type of Lesion: LUNG: ALVEOLAR/BRONCHIOLAR ADENOMA OR ALVEOLAR/BRONCHIOLAR CARCINOMA) was “active; positive” and the carcinogen call (Species: RAT, Strain/Sex: OSBORNE-MENDEL/FEMALE, Route: ORAL, Dose: 0, 250, 404 PPM TWA, IN DIET FOR 63-78 WK (STUDY DURATION: 104-111 WK), Dose: 0, 250, 404 PPM TWA, IN DIET FOR 63-78 WK (STUDY DURATION: 104-111 WK), Tumor Site: Type of Lesion: MAMMARY GLAND: ADENOCARCINOMA) was “active; positive”. The carcinogen call (Species: RAT, Strain/Sex: OSBORNE-MENDEL/MALE, Route: ORAL, Dose: 0, 250, 410 PPM TWA, IN DIET FOR 64-78 WK (STUDY DURATION: 103-111 WK), Dose: 0, 250, 410 PPM TWA, IN DIET FOR 64-78 WK (STUDY DURATION: 103-111 WK), Tumor Site: Type of Lesion: STOMACH: PAPILLOMA, SQUAMOUS CELL PAPILLOMA OR SQUAMOUS CELL CARCINOMA) was “active; positive”.
In the case of `Nc1ccc2c(c1)C(=O)c1ccccc1C2=O`, the carcinogen call (Species: MOUSE, Strain/Sex: B6C3F1/FEMALE, Route: ORAL, Dose: 0, 0.5, 1.0% OF DIET, Dose: 0, 0.5, 1.0% OF DIET, Tumor Site: Type of Lesion: LYMPHATIC SYSTEM: MALIGNANT LYMPHOMA, LIVER: HEPATOCELLULAR CARCINOMA) is reported as “active; positive”, the carcinogen call (Species: MOUSE, Strain/Sex: B6C3F1/MALE, Route: ORAL, Dose: 0, 0.5, 1.0% OF DIET, Dose: 0, 0.5, 1.0% OF DIET, Tumor Site: Type of Lesion: LIVER: HEPATOCELLULAR CARCINOMA, ADENOMA) is reported as “active; positive” and the carcinogen call (Species: RAT, Strain/Sex: F344/MALE, Route: ORAL, Dose: 0, 0.35, 0.69% OF DIET, Dose: 0, 0.35, 0.69% OF DIET, Tumor Site: Type of Lesion: LIVER: HEPATOCELLULAR CARCINOMA, NEOPLASTIC NODULE) is reported as “active; positive”.
In the case of `O=C1c2ccccc2-c2ccc([N+](=O)[O-])c3cccc1c23`, the carcinogen call (Species: RAT, Strain/Sex: F344/FEMALE, Route: INTRATRACHEAL, Dose: 0, 1.5 MG TOTAL, 2.5 MG TOTAL OVER 18 MO (STUDY DURATION: 18 MO), Dose: 0, 1.5 MG TOTAL, 2.5 MG TOTAL OVER 18 MO (STUDY DURATION: 18 MO), Tumor Site: Type of Lesion: LUNG: CARCINOMA) is reported as “active; positive (at higher dosage and longer duration)”.
`Cc1c2ccccc2c(C=O)c2ccc3ccccc3c12` was tested, and the carcinogen call (Species: RAT, Strain/Sex: SPRAGUE-DAWLEY/FEMALE (13/GROUP), Route: SUBCUTANEOUS, Dose: 0.2 UMOL 3X A WK FOR 20 DOSES (STUDY DURATION: 52 WK), Tumor Site: Type of Lesion: MAMMARY: ADENOCARCINOMA) was “active; positive (15%)” and the carcinogen call (Species: RAT, Strain/Sex: SPRAGUE-DAWLEY/FEMALE (13/GROUP), Route: SUBCUTANEOUS, Dose: 0.2 UMOL 3X A WK FOR 20 DOSES (STUDY DURATION: 52 WK), Tumor Site: Type of Lesion: SUBCUTANEOUS, SARCOMA) was “active; positive (85%)”.
With `COP(=S)(OC)Oc1ccc(SC)c(C)c1` the carcinogen call (Species: MOUSE, Strain/Sex: B6C3F1/FEMALE, Route: ORAL, Dose: 0, 10, 20 PPM IN DIET, Dose: 0, 10, 20 PPM IN DIET) was “inactive; negative”, the carcinogen call (Species: Mouse, Strain/Sex: B6C3F1/Female (60/group), Route: Oral, Dose: 0, 0.1, 1, 5, 25 ppm in diet for up to 2 yr, study duration 2 yr, Dose: 0, 0.1, 1, 5, 25 ppm in diet for up to 2 yr, study duration 2 yr) was “inactive; negative” and the carcinogen call (Species: Mouse, Strain/Sex: B6C3F1/Male (60/group), Route: Oral, Dose: 0, 0.1, 1, 5, 25 ppm in diet for up to 2 yr, study duration 2 yr, Dose: 0, 0.1, 1, 5, 25 ppm in diet for up to 2 yr, study duration 2 yr) was “inactive; negative”. The carcinogen call (Species: RAT, Strain/Sex: F344/MALE, Route: ORAL, Dose: 0, 10, 20 PPM IN DIET, Dose: 0, 10, 20 PPM IN DIET) was “inactive; negative”, the carcinogen call (Species: Rat, Strain/Sex: Fischer 344/Female (50/Group), Route: Oral, Dose: 0 (corn oil), 5, 20, 100 ppm in diet for 2 yr, study duration 2 yr, Dose: 0 (corn oil), 5, 20, 100 ppm in diet for 2 yr, study duration 2 yr) was “inactive; negative” and the carcinogen call (Species: Rat, Strain/Sex: Fischer 344/Male (50/Group), Route: Oral, Dose: 0 (corn oil), 5, 20, 100 ppm in diet for 2 yr, study duration 2 yr, Dose: 0 (corn oil), 5, 20, 100 ppm in diet for 2 yr, study duration 2 yr) was “inactive; negative”.
`COc1cccc2c1C(=O)c1c(O)c3c(c(O)c1C2=O)C[C@@](O)(C(=O)CO)C[C@@H]3O[C@H]1C[C@H](N)[C@H](O)[C@H](C)O1` was tested, and the carcinogen call (Species: RAT, Strain/Sex: SPRAGUE-DAWLEY/FEMALE, Route: INTRAVENOUS, Dose: 0, 5, 10 MG/KG IN SALINE SOLUTION ONCE (STUDY DURATION: 1 YR), Dose: 0, 5, 10 MG/KG IN SALINE SOLUTION ONCE (STUDY DURATION: 1 YR), Tumor Site: Type of Lesion: MAMMARY GLAND: FIBROADENOMA, ADENOCARCINOMA) was “active; positive” and the carcinogen call (Species: RAT, Strain/Sex: SPRAGUE-DAWLEY/MALE, Route: INTRAVENOUS, Dose: 0, 5, 10 MG/KG IN SALINE SOLUTION ONCE (STUDY DURATION: 1 YR), Dose: 0, 5, 10 MG/KG IN SALINE SOLUTION ONCE (STUDY DURATION: 1 YR), Tumor Site: Type of Lesion: MAMMARY GLAND: ADENOCARCINOMA) was “active; positive”.
`CC1(C)CN=C(NN=C(/C=C/c2ccc(C(F)(F)F)cc2)/C=C/c2ccc(C(F)(F)F)cc2)NC1` was tested, and the carcinogen call (Species: Mouse, Strain/Sex: CD-1/Female (?/Group), Route: Oral, Dose: 0, 25, 50, 100, 200 ppm of 92% hydramethylnon in diet for 18 mo, study duration 18 mo, Dose: 0, 25, 50, 100, 200 ppm of 92% hydramethylnon in diet for 18 mo, study duration 18 mo) was “inactive; negative”, the carcinogen call (Species: Mouse, Strain/Sex: CD-1/Male (?/Group), Route: Oral, Dose: 0, 25, 50, 100, 200 ppm of 92% hydramethylnon in diet for 18 mo, study duration 18 mo, Dose: 0, 25, 50, 100, 200 ppm of 92% hydramethylnon in diet for 18 mo, study duration 18 mo) was “inactive; negative” and the carcinogen call (Species: Rat, Strain/Sex: CD/Female (50/Group), Route: Oral, Dose: 0, 25, 50, 100, 200 ppm in diet for 2 yr, study duration 2 yr, Dose: 0, 25, 50, 100, 200 ppm in diet for 2 yr, study duration 2 yr) was “inactive; negative”. The carcinogen call (Species: Rat, Strain/Sex: CD/Male (50/Group), Route: Oral, Dose: 0, 25, 50, 100, 200 ppm in diet for 2 yr, study duration 2 yr, Dose: 0, 25, 50, 100, 200 ppm in diet for 2 yr, study duration 2 yr) was “inactive; negative”.
For `O=[N+]([O-])c1ccc(NCCO)c(OCCO)c1`, the carcinogen call (Species: MOUSE, Strain/Sex: B6C3F1/FEMALE, Route: ORAL, Dose: 0, 5000, 10000 PPM IN FEED 7 D/WK FOR 104 WK (STUDY DURATION: 2 YR), Dose: 0, 5000, 10000 PPM IN FEED 7 D/WK FOR 104 WK (STUDY DURATION: 2 YR)) was “inactive; negative”, the carcinogen call (Species: MOUSE, Strain/Sex: B6C3F1/MALE, Route: ORAL, Dose: 0, 5000, 10000 PPM IN FEED 7 D/WK FOR 104 WK (STUDY DURATION: 2 YR), Dose: 0, 5000, 10000 PPM IN FEED 7 D/WK FOR 104 WK (STUDY DURATION: 2 YR)) was “inactive; negative” and the carcinogen call (Species: RAT, Strain/Sex: F344/FEMALE, Route: ORAL, Dose: 0, 5000, 10000 PPM IN FEED 7 D/WK FOR 104 WK (STUDY DURATION: 2 YR), Dose: 0, 5000, 10000 PPM IN FEED 7 D/WK FOR 104 WK (STUDY DURATION: 2 YR)) was “inactive; negative”. The carcinogen call (Species: RAT, Strain/Sex: F344/MALE, Route: ORAL, Dose: 0, 5000, 10000 PPM IN FEED 7 D/WK FOR 104 WK (STUDY DURATION: 105 WK), Dose: 0, 5000, 10000 PPM IN FEED 7 D/WK FOR 104 WK (STUDY DURATION: 105 WK), Tumor Site: Type of Lesion: PITUITARY GLAND (PARS DISTALIS): ADENOMA) was “equivocal”.
For `O=CC=O`, the carcinogen call (Species: MOUSE, Strain/Sex: CD-1/FEMALE, Route: DERMAL, Dose: 0, 50 UMOL/O.1 ML DMSO 2/WK FOR 5 WK FOLLOWED 1 WK LATER BY 0.1 ML ACETONE 2/WK FOR 47 WK (STUDY DURATION: 52 WK)) was “inactive; negative”.
